From ChEMBL document CHEMBL4325859, “Research advances on anticancer activities of matrine and its derivatives: An updated overview” (Eur J Med Chem, 2019)

Assays:
[1] = tested on: BXPC-3; test: Antiproliferative activity against human BxPC3 cells after 72 hrs by MTT assay; type: functional, cell-based; conditions: BXPC-3, 72 h
[2] = Antiproliferative activity against human 95-D cells at 1.5 g/L after 12 to 48 hrs by MTT assay relative to control; type: functional
[3] = tested on: A549; test: Antiproliferative activity against human A549 cells at 1 mg/ml relative to control; type: functional
[4] = tested on: MCF7; test: Antiproliferative activity against human MCF7 cells after 24 hrs relative to control; type: functional
[5] = target: ATP-dependent translocase ABCB1 (Homo sapiens, UniProt P08183); test: Reversal of P-gp-mediated drug resistance in human MCF7/ADR cells assessed as increase in adriamycin accumulation at 0.2 mg/ml relative to control; type: cell-based
ATP-dependent translocase ABCB1, sequence (P08183 whole entry): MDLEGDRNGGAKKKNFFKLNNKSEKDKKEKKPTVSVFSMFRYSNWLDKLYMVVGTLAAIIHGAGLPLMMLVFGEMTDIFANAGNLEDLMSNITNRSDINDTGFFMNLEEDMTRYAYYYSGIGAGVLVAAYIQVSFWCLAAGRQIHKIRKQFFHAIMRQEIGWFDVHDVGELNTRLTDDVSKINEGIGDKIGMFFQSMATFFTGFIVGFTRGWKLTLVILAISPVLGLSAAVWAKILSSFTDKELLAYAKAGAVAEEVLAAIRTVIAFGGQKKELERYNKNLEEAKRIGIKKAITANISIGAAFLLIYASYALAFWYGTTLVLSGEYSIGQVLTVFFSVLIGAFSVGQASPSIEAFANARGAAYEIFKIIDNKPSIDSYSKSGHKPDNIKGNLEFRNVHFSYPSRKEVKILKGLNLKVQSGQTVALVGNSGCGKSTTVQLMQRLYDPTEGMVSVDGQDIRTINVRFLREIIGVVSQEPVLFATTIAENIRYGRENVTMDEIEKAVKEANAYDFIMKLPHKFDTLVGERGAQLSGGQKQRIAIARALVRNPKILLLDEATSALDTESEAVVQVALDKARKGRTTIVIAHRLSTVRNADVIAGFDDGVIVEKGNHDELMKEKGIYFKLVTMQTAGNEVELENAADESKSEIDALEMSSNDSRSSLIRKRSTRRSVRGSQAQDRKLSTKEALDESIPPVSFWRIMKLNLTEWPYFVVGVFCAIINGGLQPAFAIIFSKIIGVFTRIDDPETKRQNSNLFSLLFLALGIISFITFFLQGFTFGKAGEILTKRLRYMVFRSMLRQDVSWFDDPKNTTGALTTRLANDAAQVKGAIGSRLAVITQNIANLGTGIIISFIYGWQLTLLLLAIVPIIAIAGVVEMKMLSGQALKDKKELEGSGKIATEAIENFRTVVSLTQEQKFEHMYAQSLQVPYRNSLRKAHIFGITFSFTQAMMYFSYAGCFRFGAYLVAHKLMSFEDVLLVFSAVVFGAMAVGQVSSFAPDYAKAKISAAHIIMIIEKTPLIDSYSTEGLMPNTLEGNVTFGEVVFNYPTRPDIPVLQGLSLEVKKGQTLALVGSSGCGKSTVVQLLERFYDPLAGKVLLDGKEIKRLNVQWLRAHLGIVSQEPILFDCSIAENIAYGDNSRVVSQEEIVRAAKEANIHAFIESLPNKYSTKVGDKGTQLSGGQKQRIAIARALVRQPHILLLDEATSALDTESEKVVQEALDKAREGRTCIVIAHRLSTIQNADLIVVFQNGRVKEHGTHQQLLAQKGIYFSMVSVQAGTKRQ

[6] = tested on: HepG2; test: Antiproliferative activity against human HepG2 cells at 1 mg/ml after 72 hrs by MTT assay relative to control; type: functional
[7] = tested on: HepG2; test: Antiproliferative activity against human HepG2 cells at 1 mg/ml after 48 hrs relative to control; type: functional
[8] = tested on: SGC-7901; test: Induction of apoptosis in human SGC7901 cells at 60 mg/ml after 48 hrs by propidium iodide staining based flow cytometry (reference value: 3.54 +/- 0.47%); type: functional
[9] = tested on: SGC-7901; test: Induction of apoptosis in human SGC7901 cells at […] after 48 hrs by propidium iodide staining based flow cytometry (reference value: 3.54 +/- 0.47%); type: functional
[10] = tested on: BXPC-3; test: Induction of apoptosis in human BxPC3 cells at 0.75 mg/ml by flow cytometry (reference value: 2.81%); type: functional
[11] = tested on: PANC-1; test: Induction of apoptosis in human PANC1 cells at 0.25 mg/ml by flow cytometry (reference value: 4.13%); type: functional
[12] = tested on: PANC-1; test: Induction of apoptosis in human PANC1 cells at 1.25 mg/ml by flow cytometry (reference value: 4.13%); type: functional
[13] = tested on: PC-3; test: Induction of apoptosis in human PC3 cells assessed as late apoptotic cells at […] (reference value: 2.5%); type: functional
[14] = tested on: CCRF-CEM; test: Antiproliferative activity against human CCRF-CEM cells after 48 hrs by WST1 assay; type: functional, cell-based
[15] = tested on: HL-60; test: Induction of apoptosis in human HL60 cells after 24 hrs by Annexin V-FITC/propidium iodide staining based flow cytometry relative to control; type: functional
[16] = tested on: K562; test: Antiproliferative activity against human K562 cells after 72 hrs by MTT assay; type: functional, cell-based; conditions: K562, 72 h
[17] = tested on: RPMI-8226; test: Induction of apoptosis in human RPMI8226 cells at 1000 mg/L after 48 hrs by Annexin V/propidium iodide staining based flow cytometry (reference value: 3.02 +/- 1.19%); type: functional
[18] = tested on: RPMI-8226; test: Induction of apoptosis in human RPMI8226 cells at 1500 mg/L after 48 hrs by Annexin V/propidium iodide staining based flow cytometry (reference value: 3.02 +/- 1.19%); type: functional
[19] = tested on: MM1.S; test: Growth inhibition of human MM1S cells after 24 hrs; type: functional, cell-based
[20] = tested on: RPMI-8226; test: Induction of apoptosis in human RPMI8226 cells at 1.5 g/L after 48 hrs by Annexin V-FITC/propidium iodide staining based flow cytometry (Rvb < 3%); type: functional
[21] = tested on: KYSE-150 cell line; test: Antiproliferative activity against human KYSE-150 cells assessed as cell viability at 2.5 mg/ml after 24 hrs by MTT assay relative to control; type: functional; conditions: KYSE-150, 24 h, read-out: Activity
[22] = tested on: LoVo; test: Antiproliferative activity against human LoVo cells after 48 hrs by MTT assay; type: functional, cell-based
[23] = tested on: HT-29; test: Growth inhibition of human HT-29 cells at 4 ml/L after 24 hrs by MTT assay relative to control; type: functional
[24] = tested on: HT-29; test: Growth inhibition of human HT-29 cells at 8 ml/L after 36 hrs by MTT assay relative to control; type: functional
[25] = tested on: HT-29; test: Growth inhibition of human HT-29 cells at 0.25 mg/ml by MTT assay relative to control; type: functional; conditions: read-out: GI
[26] = tested on: DLD-1; test: Growth inhibition of human DLD1 cells after 24 hrs by MTT assay; type: functional, cell-based; conditions: DLD-1, 24 h
[27] = tested on: HOS-TE85; test: Growth inhibition of human MNNG-HOS cells after 48 hrs by MTT assay; type: functional, cell-based; conditions: HOS-TE85, 48 h
[28] = tested on: HOS; test: Growth inhibition of human HOS cells at 3.2 mg/ml after 48 hrs by MTT assay relative to control; type: functional; conditions: read-out: GI
[29] = tested on: U2OS; test: Growth inhibition of human U2OS cells at 3.2 mg/ml after 48 hrs by MTT assay relative to control; type: functional; conditions: read-out: GI
[30] = tested on: SAOS-2; test: Growth inhibition of human Saos2 cells at 3.2 mg/ml after 48 hrs by MTT assay relative to control; type: functional; conditions: SAOS-2, 48 h, read-out: GI
[31] = tested on: MG-63; test: Growth inhibition of human MG63 cells after 48 hrs by MTT assay; type: functional, cell-based; conditions: MG-63, 48 h
[32] = tested on: UMR108; test: Growth inhibition of rat UMR108 cells assessed as cell proliferation at 0.5 mg/ml after 24 hrs by MTT assay (reference value: 0.405 +/- 0.007%); type: functional; conditions: UMR108, 24 h, read-out: Activity
[33] = tested on: UMR108; test: Growth inhibition of rat UMR108 cells assessed as cell proliferation at 0.5 mg/ml after 72 hrs by MTT assay (reference value: 0.403 +/- 0.009%); type: functional; conditions: UMR108, 72 h, read-out: Activity
[34] = tested on: UMR108; test: Growth inhibition of rat UMR108 cells assessed as cell proliferation at 1 mg/ml after 72 hrs by MTT assay (reference value: 0.403 +/- 0.009%); type: functional; conditions: UMR108, 72 h, read-out: Activity
[35] = tested on: UMR108; test: Growth inhibition of rat UMR108 cells assessed as cell proliferation at 1.5 mg/ml after 72 hrs by MTT assay (reference value: 0.403 +/- 0.009%); type: functional; conditions: UMR108, 72 h, read-out: Activity
[36] = Growth inhibition of human GRC1 cells at 0.3 g/L after 24 hrs by MTT assay relative to control; type: functional; conditions: read-out: GI
[37] = Growth inhibition of human GRC1 cells at 0.3 g/L after 48 hrs by MTT assay relative to control; type: functional; conditions: read-out: GI
[38] = Growth inhibition of human GRC1 cells at 1 g/L after 48 hrs by MTT assay relative to control; type: functional; conditions: read-out: GI
[39] = Growth inhibition of human GRC1 cells at 0.5 g/L after 72 hrs by MTT assay relative to control; type: functional; conditions: read-out: GI
[40] = tested on: D341 cell line; test: Growth inhibition of human D341 cells at 0.5 mg/ml after 72 hrs by CCK8 assay relative to control; type: functional; conditions: D341, 72 h, read-out: GI
[41] = tested on: D341 cell line; test: Growth inhibition of human D341 cells at 2 mg/ml after 48 hrs by CCK8 assay relative to control; type: functional; conditions: D341, 48 h, read-out: GI
[42] = tested on: C-33-A; test: Induction of apoptosis in human C33A cells at 25 ug/ml after 48 hrs by Annexin V-FITC/propidium iodide staining based flow cytometry relative to control; type: functional
[43] = tested on: C-33-A; test: Antiproliferative activity against human C33A cells after 48 hrs by CCK8 assay; type: functional, cell-based
[44] = tested on: PANC-1; test: Antiproliferative activity against human PANC1 cells by MTT assay; type: functional, cell-based

## O=C1CCC[C@@H]2[C@H]3CCCN4CCC[C@@H](CN12)[C@@H]34 [MATRINE]
[1]
  IC50: 2.94 mM
[2]
  Activity: 30%
[3]
  Activity: 52.68%
[4]
  Activity: 6.01 - 37.01%
[5]
  fold change (FC): 3.56
[6]
  Activity: 18.25%
[7]
  Activity: 48.39%
[8]
  Activity: 22.34%
[9]
  Activity: 34.59%
[10]
  Activity: 48.83%
[11]
  Activity: 8.71%
[12]
  Activity: 42.55%
[13]
  Activity: 20.5%
[14]
  IC50: 9.67 mM
[15]
  Activity: 41.1%
[16]
  IC50: 1.77 mM
[17]
  Activity: 18.48%
[18]
  Activity: 31.1%
[19]
  IC50: 4.95 mM
[20]
  Activity: 32.89%
[21]
  viability at 2500 µg/mL: 40.4%
[22]
  IC50: 2.97 mM
[23]
  growth inhibition (GI): 17.88%
[24]
  growth inhibition (GI): 58.2%
[25]
  inhibition of growth at 250 µg/mL: 12.2%
[26]
  IC50: 6.32 mM
[27]
  IC50: 3.1 mM
[28]
  inhibition of growth at 3200 µg/mL: 57%
[29]
  inhibition of growth at 3200 µg/mL: 77%
[30]
  inhibition of growth at 3200 µg/mL: 70%
[31]
  IC50: 7.05 mM
[32]
  growth at 500 µg/mL: 0.324%
[33]
  growth at 500 µg/mL: 0.228%
[34]
  growth at 1000 µg/mL: 0.195%
[35]
  growth at 1500 µg/mL: 0.147%
[36]
  inhibition of growth at 300 µg/mL: 6.3%
[37]
  inhibition of growth at 300 µg/mL: 8.8%
[38]
  inhibition of growth at 1000 µg/mL: 25.4%
[39]
  inhibition of growth at 500 µg/mL: 21.9%
[40]
  inhibition of growth at 500 µg/mL: 12.7%
[41]
  inhibition of growth at 2000 µg/mL: 47.2%
[42]
  Activity: 5.31%
[43]
  IC50: 5.92 mM
[44]
  IC50: 0.0286 mM
